Measured values from US20190022072A1, “USAGE OF ACETAZOLAMIDE FOR TREATING ICH, PARTICULARLY HYPERGLYCEMIC ICH” (priority 2017, published 2019).

How the values were obtained:
experimental ICH = assay: hemorrhagic areas of brains of normoglycemic and hyperglycemic rats with experimental ICH treated with AZA; type: in vivo, Wistar rats
Experimental: (§1) In the hyperglycemia experiment, six Wistar rats are applied. Regarding each rat, hyperglycemia is induced by a single intraperitoneal injection of a buffer solution of streptozotocin (STZ) in 31 mM citrate and 39 mM sodium phosphate at 70 mg/kg body weight after an overnight fast. On the other hand, control rats receive an intraperitoneal injection of buffer vehicle. On day 3 after STZ treatment, whole blood of the rats is obtained and the glucose levels thereof are measured. Blood glucose level of ≥250 mg/dL was chosen as hyperglycemia, whereas rats were used as normoglycemia, defined as a blood glucose level of <100 mg/dL.
(§2) Then in the intracerebral hemorrhage experiment, each hyperglycemic or normoglycemic rat is anesthetized with an intraperitoneal injection of 50 mg/kg pentobarbital. Next, a needle is introduced through a burr hole into the striatum, and the needle is then removed, with the burr hole sealed with bone wax and the wound sutured. After a period of time, AZA is administered orally or by gastric lavage at 5 mg/kg in normal saline. Blood of the rats are sampled on days 1, 4, and 7 post-induction of ICH for testing the glucose level thereof.
Experiment 2: comparing the hemorrhagic areas of normoglycemic and hyperglycemic rats treated with AZA.

AQP4 = assay: expression of AQP4 in brain tissues of normoglycemic and hyperglycemic rats with experimental ICH, immunohistochemistry; type: in vivo, Wistar rats
Experimental: as §1, §2
Experiment 3: determining the expression of AQP4 in normoglycemic and hyperglycemic rats.
The differential expressions of AQP4 in normoglycemic and hyperglycemic rats are detected by AQP4 autoantibody by Immunohistochemistry. The effect of AZA influencing the expression of AQP4 are tested.

[1] = hyperglycemic rats treated with AZA, day 1
[2] = hyperglycemic rats treated with AZA, day 4
[3] = hyperglycemic rats treated with AZA, day 7
[4] = normoglycemic rats treated with AZA, day 1
[5] = normoglycemic rats treated with AZA, day 4
[6] = normoglycemic rats treated with AZA, day 7

For `CC(=O)Nc1nnc(S(N)(=O)=O)s1` [AZA, acetazolamide], the “hemorrhagic areas, change in words” value (experimental ICH; both normoglycemic and hyperglycemic rats treated with AZA) was “significant decrease”, the “hemorrhagic areas square measure of rats (%)” value (experimental ICH; [1]) was 2.08 ± 0.02% and the “hemorrhagic areas square measure of rats (%)” value (experimental ICH; [2]) was 0.91 ± 0.13%. For the same compound, the “hemorrhagic areas square measure of rats (%)” value (experimental ICH; [3]) was 0.38 ± 0.10%, the “hemorrhagic areas square measure of rats (%)” value (experimental ICH; [4]) was 6.00 ± 0.05% and the “hemorrhagic areas square measure of rats (%)” value (experimental ICH; [5]) was 2.61 ± 0.17%. The “hemorrhagic areas square measure of rats (%)” value (experimental ICH; [6]) was 1.37 ± 0.05%, the “AQP4 expression, change in words” value (AQP4; hyperglycemic rats administered with AZA (5 mg/kg)) was “significant decrease” and the “the expression of AQP4” value (AQP4; [1]) was 15.67 ± 6.59. For the same compound, the “the expression of AQP4” value (AQP4; [2]) was 8.65 ± 4.53%, the “the expression of AQP4” value (AQP4; [3]) was 2.33 ± 3.83 and the “the expression of AQP4” value (AQP4; [4]) was 12.19 ± 2.75. For the same compound, the “the expression of AQP4” value (AQP4; [5]) was 18.56 ± 5.67 ^ and the “the expression of AQP4” value (AQP4; [6]) was 37.84 ± 6.53.
